Experimental data as given in the NIST ThermoML archive (doi:10.1016/j.jct.2013.05.024).

Assay: excess molar enthalpy (molar enthalpy of mixing); xn = mol fraction of the nth substance listed
Settings: 101.3 kPa, Liquid, Isoperibol calorimetry

CCOC(=O)C(=O)OCC [diethyl ethanedioate] + CC(C)O
excess molar enthalpy [kJ/mol]
Settings | 288.2 K | 298.2 K | 313.2 K | 328.2 K
x1 = 0.0492 | 0.519 | 0.548 | 0.585 | 0.605
x1 = 0.0997 | 0.943 | 1.03 | 1.12 | 1.2
x1 = 0.1514 | 1.265 | 1.389 | 1.526 | 1.633
x1 = 0.2009 | 1.492 | 1.647 | 1.831 | 1.949
x1 = 0.2507 | 1.712 | 1.9 | 2.094 | 2.246
x1 = 0.3005 | 1.832 | 2.03 | 2.257 | 2.402
x1 = 0.3499 | 1.959 | 2.163 | 2.392 | 2.549
x1 = 0.3987 | 2.024 | 2.236 | 2.467 | 2.657
x1 = 0.4504 | 2.076 | 2.285 | 2.532 | 2.685
x1 = 0.501 | 2.082 | 2.279 | 2.524 | 2.68
x1 = 0.55 | 2.09 | 2.277 | 2.486 | 2.643
x1 = 0.6018 | 2.04 | 2.211 | 2.415 | 2.563
x1 = 0.6515 | 1.965 | 2.122 | 2.295 | 2.416
x1 = 0.6985 | 1.849 | 1.993 | 2.152 | 2.253
x1 = 0.7478 | 1.693 | 1.807 | 1.955 | 2.028
x1 = 0.7996 | 1.481 | 1.574 | 1.667 | 1.743
x1 = 0.8479 | 1.228 | 1.29 | 1.372 | 1.404
x1 = 0.8985 | 0.908 | 0.932 | 0.995 | 0.982
x1 = 0.9515 | 0.493 | 0.468 | 0.479 | 0.505

CCOC(=O)C(=O)OCC [diethyl ethanedioate] + CCCO
excess molar enthalpy [kJ/mol]
Settings | 288.2 K | 298.2 K | 313.2 K | 328.2 K
x1 = 0.0505 | 0.445 | 0.471 | 0.514 | 0.563
x1 = 0.1001 | 0.781 | 0.845 | 0.971 | 1.04
x1 = 0.1509 | 1.056 | 1.154 | 1.319 | 1.429
x1 = 0.1998 | 1.269 | 1.387 | 1.58 | 1.723
x1 = 0.2491 | 1.429 | 1.588 | 1.811 | 1.956
x1 = 0.2986 | 1.571 | 1.723 | 1.965 | 2.153
x1 = 0.3478 | 1.672 | 1.858 | 2.11 | 2.308
x1 = 0.4003 | 1.754 | 1.948 | 2.211 | 2.392
x1 = 0.4482 | 1.8 | 1.987 | 2.252 | 2.451
x1 = 0.499 | 1.839 | 2.025 | 2.279 | 2.471
x1 = 0.5484 | 1.829 | 2.009 | 2.256 | 2.452
x1 = 0.6007 | 1.8 | 1.98 | 2.196 | 2.363
x1 = 0.6509 | 1.736 | 1.894 | 2.109 | 2.246
x1 = 0.6986 | 1.642 | 1.777 | 1.97 | 2.108
x1 = 0.7487 | 1.51 | 1.622 | 1.797 | 1.89
x1 = 0.8015 | 1.325 | 1.424 | 1.536 | 1.612
x1 = 0.8509 | 1.101 | 1.18 | 1.25 | 1.302
x1 = 0.9028 | 0.804 | 0.822 | 0.879 | 0.909
x1 = 0.9503 | 0.424 | 0.45 | 0.454 | 0.453

CCOC(=O)C(=O)OCC [diethyl ethanedioate] + CCO
excess molar enthalpy [kJ/mol]
Settings | 288.2 K | 298.2 K | 313.2 K | 328.2 K
x1 = 0.0495 | 0.292 | 0.35 | 0.397 | 0.437
x1 = 0.0994 | 0.564 | 0.672 | 0.775 | 0.859
x1 = 0.1508 | 0.812 | 0.929 | 1.07 | 1.203
x1 = 0.2004 | 0.993 | 1.121 | 1.294 | 1.451
x1 = 0.2497 | 1.156 | 1.29 | 1.491 | 1.676
x1 = 0.3009 | 1.274 | 1.427 | 1.644 | 1.832
x1 = 0.3502 | 1.369 | 1.529 | 1.761 | 1.969
x1 = 0.4003 | 1.45 | 1.609 | 1.849 | 2.064
x1 = 0.4508 | 1.492 | 1.669 | 1.917 | 2.126
x1 = 0.5011 | 1.524 | 1.695 | 1.937 | 2.145
x1 = 0.5506 | 1.527 | 1.695 | 1.93 | 2.139
x1 = 0.5986 | 1.511 | 1.674 | 1.9 | 2.088
x1 = 0.6502 | 1.469 | 1.611 | 1.825 | 1.998
x1 = 0.6996 | 1.391 | 1.522 | 1.716 | 1.872
x1 = 0.7525 | 1.279 | 1.389 | 1.561 | 1.674
x1 = 0.8021 | 1.135 | 1.228 | 1.36 | 1.446
x1 = 0.8473 | 0.949 | 1.038 | 1.126 | 1.204
x1 = 0.9034 | 0.686 | 0.719 | 0.795 | 0.812
x1 = 0.946 | 0.417 | 0.421 | 0.487 | 0.486

CCOC(=O)C(=O)OCC [diethyl ethanedioate] + CO
excess molar enthalpy [kJ/mol]
Settings | 288.2 K | 298.2 K | 313.2 K | 328.2 K
x1 = 0.0493 | – | 0.219 | 0.251 | 0.282
x1 = 0.0494 | 0.194 | – | – | –
x1 = 0.1004 | – | 0.424 | 0.502 | 0.58
x1 = 0.1005 | 0.371 | – | – | –
x1 = 0.1593 | – | 0.626 | 0.738 | 0.854
x1 = 0.2003 | – | 0.741 | 0.877 | 1.007
x1 = 0.2004 | 0.651 | – | – | –
x1 = 0.2505 | – | 0.866 | 1.012 | 1.167
x1 = 0.2507 | 0.772 | – | – | –
x1 = 0.299 | – | 0.972 | 1.14 | 1.308
x1 = 0.2991 | 0.867 | – | – | –
x1 = 0.3509 | – | 1.065 | 1.246 | 1.425
x1 = 0.3511 | 0.945 | – | – | –
x1 = 0.4017 | – | 1.132 | 1.322 | 1.513
x1 = 0.4019 | 1.012 | – | – | –
x1 = 0.4494 | – | 1.181 | 1.374 | 1.561
x1 = 0.4496 | 1.055 | – | – | –
x1 = 0.4973 | – | 1.217 | 1.417 | 1.608
x1 = 0.4975 | 1.092 | – | – | –
x1 = 0.5507 | – | 1.231 | 1.422 | 1.608
x1 = 0.5509 | 1.112 | – | – | –
x1 = 0.5967 | – | 1.228 | 1.413 | 1.589
x1 = 0.5969 | 1.109 | – | – | –
x1 = 0.6473 | – | 1.195 | 1.37 | 1.52
x1 = 0.6475 | 1.09 | – | – | –
x1 = 0.7032 | – | 1.127 | 1.302 | 1.418
x1 = 0.7033 | 1.032 | – | – | –
x1 = 0.7468 | – | 1.083 | 1.218 | 1.299
x1 = 0.7469 | 0.976 | – | – | –
x1 = 0.8037 | – | 0.996 | 1.085 | 1.105
x1 = 0.8039 | 0.867 | – | – | –
x1 = 0.8449 | – | 0.873 | 0.956 | 0.927
x1 = 0.845 | 0.754 | – | – | –
x1 = 0.9004 | – | 0.638 | 0.651 | 0.617
x1 = 0.9005 | 0.531 | – | – | –
x1 = 0.9484 | 0.283 | 0.371 | 0.395 | 0.353
